Test results as given in article PMC12090182, “Repurposing of the RIPK1-Selective Benzo[1,4]oxazepin-4-one Scaffold for the Development of a Type III LIMK1/2 Inhibitor” (ACS Chemical Biology, 2025).
Read-outs that look alike come from different tables or passages of the source.

Assays:
Assay in all cases: biochemical
Assay type in all cases: binding
[1] = target: 468 kinases including some pathogenic mutants (Homo sapiens, UniProt P24941); conditions: CDK2 (Entrez CDK2), 100 nM; read-out: Percent Control
[2] = target: 468 kinases including some pathogenic mutants (Homo sapiens, UniProt Q9P1W9); conditions: PIM2 (Entrez PIM2), 100 nM; read-out: Percent Control
Sequence of 468 kinases including some pathogenic mutants (Homo sapiens, UniProt Q9P1W9) (Q9P1W9 whole entry, change not shown): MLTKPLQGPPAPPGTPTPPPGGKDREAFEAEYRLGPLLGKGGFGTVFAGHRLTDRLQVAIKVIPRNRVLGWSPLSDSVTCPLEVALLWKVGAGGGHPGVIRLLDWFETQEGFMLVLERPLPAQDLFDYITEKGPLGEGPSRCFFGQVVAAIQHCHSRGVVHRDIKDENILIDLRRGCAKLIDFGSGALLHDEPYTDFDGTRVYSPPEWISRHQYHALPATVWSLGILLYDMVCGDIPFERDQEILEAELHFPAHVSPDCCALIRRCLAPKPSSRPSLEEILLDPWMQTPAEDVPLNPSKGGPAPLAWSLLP

[3] = target: 468 kinases including some pathogenic mutants (Homo sapiens, UniProt Q13464); conditions: ROCK1 (Entrez ROCK1), 100 nM; read-out: Percent Control
[4] = target: 468 kinases including some pathogenic mutants (Homo sapiens, UniProt Q6P2M8); conditions: CAMK1B (Entrez PNCK), 100 nM; read-out: Percent Control
Sequence of 468 kinases including some pathogenic mutants (Homo sapiens, UniProt Q6P2M8) (Q6P2M8 whole entry, stated change not applied): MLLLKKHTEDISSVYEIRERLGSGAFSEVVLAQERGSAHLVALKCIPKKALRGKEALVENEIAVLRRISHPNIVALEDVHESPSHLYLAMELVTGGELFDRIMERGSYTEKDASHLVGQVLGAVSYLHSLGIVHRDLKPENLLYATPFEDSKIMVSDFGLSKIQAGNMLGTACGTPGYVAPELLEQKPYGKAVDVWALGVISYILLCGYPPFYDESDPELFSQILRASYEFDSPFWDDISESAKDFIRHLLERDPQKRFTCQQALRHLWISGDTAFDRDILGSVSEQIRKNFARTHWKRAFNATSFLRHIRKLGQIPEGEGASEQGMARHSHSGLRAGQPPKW

[5] = target: 468 kinases including some pathogenic mutants (Homo sapiens, UniProt P42336, C420R); conditions: read-out: Percent Control
[6] = target: 468 kinases including some pathogenic mutants (Homo sapiens, UniProt P00519, Y253F); conditions: read-out: Percent Control
[7] = target: 468 kinases including some pathogenic mutants (Homo sapiens, UniProt Q14289); conditions: PYK2 (Entrez PTK2B), 100 nM; read-out: Percent Control
[8] = target: 468 kinases including some pathogenic mutants (Homo sapiens, UniProt P52564); conditions: MEK6 (Entrez MAP2K6), 1000 nM; read-out: Percent Control
[9] = target: 468 kinases including some pathogenic mutants (Homo sapiens, UniProt P53355); conditions: DAPK1 (Entrez DAPK1), 100 nM; read-out: Percent Control
[10] = target: 468 kinases including some pathogenic mutants (Homo sapiens, UniProt Q16620); conditions: TRKB (Entrez NTRK2), 100 nM; read-out: Percent Control
Sequence of 468 kinases including some pathogenic mutants (Homo sapiens, UniProt Q16620) (Q16620 32-822, change not shown): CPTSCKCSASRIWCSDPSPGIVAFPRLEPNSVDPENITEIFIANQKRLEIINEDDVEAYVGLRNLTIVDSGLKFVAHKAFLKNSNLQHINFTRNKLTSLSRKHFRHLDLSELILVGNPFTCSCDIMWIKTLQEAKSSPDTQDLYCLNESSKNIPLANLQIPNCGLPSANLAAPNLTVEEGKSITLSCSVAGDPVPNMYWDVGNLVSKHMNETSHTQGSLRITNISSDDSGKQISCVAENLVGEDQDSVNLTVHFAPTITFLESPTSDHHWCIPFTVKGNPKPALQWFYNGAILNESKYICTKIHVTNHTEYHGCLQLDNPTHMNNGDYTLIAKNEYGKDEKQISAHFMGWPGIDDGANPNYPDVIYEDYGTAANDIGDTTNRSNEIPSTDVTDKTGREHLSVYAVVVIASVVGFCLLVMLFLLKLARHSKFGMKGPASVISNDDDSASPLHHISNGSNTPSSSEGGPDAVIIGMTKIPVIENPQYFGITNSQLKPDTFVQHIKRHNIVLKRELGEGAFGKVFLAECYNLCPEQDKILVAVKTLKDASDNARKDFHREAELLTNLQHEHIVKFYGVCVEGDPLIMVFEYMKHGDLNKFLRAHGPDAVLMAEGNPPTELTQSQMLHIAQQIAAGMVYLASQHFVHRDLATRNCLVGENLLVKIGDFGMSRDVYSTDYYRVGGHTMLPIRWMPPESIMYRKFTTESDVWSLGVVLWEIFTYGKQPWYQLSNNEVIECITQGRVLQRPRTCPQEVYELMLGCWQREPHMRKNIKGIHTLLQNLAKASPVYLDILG

[11] = target: 468 kinases including some pathogenic mutants (Homo sapiens, UniProt Q9H2K8); conditions: TAOK3 (Entrez TAOK3), 100 nM; read-out: Percent Control
[12] = target: 468 kinases including some pathogenic mutants (Homo sapiens, UniProt Q05397); conditions: FAK (Entrez PTK2), 100 nM; read-out: Percent Control
[13] = target: 468 kinases including some pathogenic mutants (Homo sapiens, UniProt P16591); conditions: FER (Entrez FER), 100 nM; read-out: Percent Control
[14] = target: 468 kinases including some pathogenic mutants (Homo sapiens, UniProt P19784); conditions: CSNK2A2 (Entrez CSNK2A2), 100 nM; read-out: Percent Control
Sequence of 468 kinases including some pathogenic mutants (Homo sapiens, UniProt P19784) (P19784 whole entry, change not shown): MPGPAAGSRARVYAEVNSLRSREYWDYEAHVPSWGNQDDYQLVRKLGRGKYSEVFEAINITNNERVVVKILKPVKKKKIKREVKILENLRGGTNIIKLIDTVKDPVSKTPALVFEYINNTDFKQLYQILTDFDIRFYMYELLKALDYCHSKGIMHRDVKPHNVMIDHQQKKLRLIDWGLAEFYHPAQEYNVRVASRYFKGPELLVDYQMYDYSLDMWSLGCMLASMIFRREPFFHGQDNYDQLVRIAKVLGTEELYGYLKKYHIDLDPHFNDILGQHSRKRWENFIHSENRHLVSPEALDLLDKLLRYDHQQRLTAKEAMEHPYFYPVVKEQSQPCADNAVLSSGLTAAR

[15] = target: 468 kinases including some pathogenic mutants (Homo sapiens, UniProt O95835); conditions: LATS1 (Entrez LATS1), 100 nM; read-out: Percent Control
[16] = target: 468 kinases including some pathogenic mutants (Homo sapiens, UniProt P24723); conditions: PRKCH (Entrez PRKCH), 1000 nM; read-out: Percent Control
Sequence of 468 kinases including some pathogenic mutants (Homo sapiens, UniProt P24723) (P24723 whole entry, change not shown): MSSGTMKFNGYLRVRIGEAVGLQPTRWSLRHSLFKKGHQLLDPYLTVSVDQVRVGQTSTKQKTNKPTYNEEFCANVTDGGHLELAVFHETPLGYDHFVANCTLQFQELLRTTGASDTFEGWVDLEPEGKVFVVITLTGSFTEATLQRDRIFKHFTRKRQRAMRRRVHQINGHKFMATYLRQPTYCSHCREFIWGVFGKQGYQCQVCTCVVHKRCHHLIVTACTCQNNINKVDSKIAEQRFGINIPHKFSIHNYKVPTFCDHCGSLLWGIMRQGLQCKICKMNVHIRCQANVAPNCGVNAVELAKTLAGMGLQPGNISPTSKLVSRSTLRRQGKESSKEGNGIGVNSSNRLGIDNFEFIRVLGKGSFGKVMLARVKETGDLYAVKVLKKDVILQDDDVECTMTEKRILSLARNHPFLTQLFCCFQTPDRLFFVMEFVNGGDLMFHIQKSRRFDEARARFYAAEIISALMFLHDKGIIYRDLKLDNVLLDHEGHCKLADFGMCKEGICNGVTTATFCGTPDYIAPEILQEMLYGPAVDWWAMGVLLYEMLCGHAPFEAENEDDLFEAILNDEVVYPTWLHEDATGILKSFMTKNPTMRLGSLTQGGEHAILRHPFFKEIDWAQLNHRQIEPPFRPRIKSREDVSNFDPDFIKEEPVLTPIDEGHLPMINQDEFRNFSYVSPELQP

[17] = target: 468 kinases including some pathogenic mutants (Homo sapiens, UniProt P08631); conditions: HCK (Entrez HCK), 100 nM; read-out: Percent Control
[18] = target: 468 kinases including some pathogenic mutants (Homo sapiens, UniProt Q6ZWH5); conditions: NEK10 (Entrez NEK10), 100 nM; read-out: Percent Control
[19] = target: 468 kinases including some pathogenic mutants (Homo sapiens, UniProt Q13233); conditions: MAP3K1 (Entrez MAP3K1), 1000 nM; read-out: Percent Control
[20] = target: 468 kinases including some pathogenic mutants (Homo sapiens, UniProt Q8NG66); conditions: NEK11 (Entrez NEK11), 100 nM; read-out: Percent Control
Sequence of 468 kinases including some pathogenic mutants (Homo sapiens, UniProt Q8NG66) (Q8NG66 whole entry, change not shown): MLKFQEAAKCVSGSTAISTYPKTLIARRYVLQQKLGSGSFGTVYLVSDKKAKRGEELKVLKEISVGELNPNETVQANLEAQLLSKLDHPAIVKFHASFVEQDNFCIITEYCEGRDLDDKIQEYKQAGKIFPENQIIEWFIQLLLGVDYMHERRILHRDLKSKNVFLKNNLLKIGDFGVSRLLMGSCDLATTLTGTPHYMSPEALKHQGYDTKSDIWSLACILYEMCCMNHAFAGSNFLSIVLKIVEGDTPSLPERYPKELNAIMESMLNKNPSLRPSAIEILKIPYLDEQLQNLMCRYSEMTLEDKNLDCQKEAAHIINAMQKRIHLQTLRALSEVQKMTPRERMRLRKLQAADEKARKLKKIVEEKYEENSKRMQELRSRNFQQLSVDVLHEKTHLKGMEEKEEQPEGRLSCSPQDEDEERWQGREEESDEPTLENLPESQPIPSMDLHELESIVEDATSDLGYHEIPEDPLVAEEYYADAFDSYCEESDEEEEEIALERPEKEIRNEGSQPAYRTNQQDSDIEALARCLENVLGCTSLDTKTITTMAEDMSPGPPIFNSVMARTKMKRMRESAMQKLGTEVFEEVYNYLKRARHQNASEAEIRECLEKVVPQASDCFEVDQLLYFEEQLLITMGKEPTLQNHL

[21] = target: 468 kinases including some pathogenic mutants (Homo sapiens, UniProt Q8N568); conditions: DCAMKL2 (Entrez DCLK2), 100 nM; read-out: Percent Control
[22] = target: 468 kinases including some pathogenic mutants (Homo sapiens, UniProt Q96RR4); conditions: CAMKK2 (Entrez CAMKK2), 100 nM; read-out: Percent Control
Sequence of 468 kinases including some pathogenic mutants (Homo sapiens, UniProt Q96RR4) (Q96RR4 whole entry, change not shown): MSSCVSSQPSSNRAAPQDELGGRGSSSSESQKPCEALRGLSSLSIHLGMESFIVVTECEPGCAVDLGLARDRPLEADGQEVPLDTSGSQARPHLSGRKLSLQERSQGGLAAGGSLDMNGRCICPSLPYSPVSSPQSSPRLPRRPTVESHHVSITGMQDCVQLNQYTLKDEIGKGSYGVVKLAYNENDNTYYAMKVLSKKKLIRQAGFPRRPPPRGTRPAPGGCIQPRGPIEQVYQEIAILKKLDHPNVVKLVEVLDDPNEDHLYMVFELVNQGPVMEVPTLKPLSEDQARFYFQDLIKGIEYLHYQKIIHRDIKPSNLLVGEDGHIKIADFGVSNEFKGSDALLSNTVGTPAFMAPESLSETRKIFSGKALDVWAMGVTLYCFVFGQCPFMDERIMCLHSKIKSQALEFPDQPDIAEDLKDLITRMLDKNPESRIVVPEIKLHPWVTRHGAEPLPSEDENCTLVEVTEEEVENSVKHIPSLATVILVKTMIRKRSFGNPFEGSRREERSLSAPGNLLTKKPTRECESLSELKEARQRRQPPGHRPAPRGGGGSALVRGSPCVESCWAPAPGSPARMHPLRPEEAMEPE

[23] = target: 468 kinases including some pathogenic mutants (Homo sapiens, UniProt Q8TF76); conditions: HASPIN (Entrez GSG2), 100 nM; read-out: Percent Control
[24] = target: 468 kinases including some pathogenic mutants (Homo sapiens, UniProt P41240); conditions: CSK (Entrez CSK), 100 nM; read-out: Percent Control
Sequence of 468 kinases including some pathogenic mutants (Homo sapiens, UniProt P41240) (P41240 whole entry, change not shown): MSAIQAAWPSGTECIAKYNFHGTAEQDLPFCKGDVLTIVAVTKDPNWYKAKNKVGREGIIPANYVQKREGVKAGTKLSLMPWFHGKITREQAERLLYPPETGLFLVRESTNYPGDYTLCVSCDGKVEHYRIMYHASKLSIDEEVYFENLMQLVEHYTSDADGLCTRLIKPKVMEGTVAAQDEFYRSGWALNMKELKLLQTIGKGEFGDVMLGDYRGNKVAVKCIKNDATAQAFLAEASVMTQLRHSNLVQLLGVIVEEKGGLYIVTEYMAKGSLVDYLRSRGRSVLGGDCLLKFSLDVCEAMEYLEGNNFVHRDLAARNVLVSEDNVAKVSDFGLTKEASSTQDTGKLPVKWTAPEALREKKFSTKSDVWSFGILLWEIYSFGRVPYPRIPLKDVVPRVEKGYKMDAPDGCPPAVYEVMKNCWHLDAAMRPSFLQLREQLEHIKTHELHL

[25] = target: 468 kinases including some pathogenic mutants (Homo sapiens, UniProt Q15746); conditions: MYLK (Entrez MYLK), 100 nM; read-out: Percent Control
[26] = target: 468 kinases including some pathogenic mutants (Homo sapiens, UniProt P10721, A829P); conditions: read-out: Percent Control
[27] = target: 468 kinases including some pathogenic mutants (Homo sapiens, UniProt Q6XUX3); conditions: RIPK5 (Entrez DSTYK), 1000 nM; read-out: Percent Control
[28] = target: 468 kinases including some pathogenic mutants (Homo sapiens, UniProt O75582); conditions: 1000 nM, read-out: Percent Control
Sequence of 468 kinases including some pathogenic mutants (Homo sapiens, UniProt O75582) (O75582 whole entry, change not shown): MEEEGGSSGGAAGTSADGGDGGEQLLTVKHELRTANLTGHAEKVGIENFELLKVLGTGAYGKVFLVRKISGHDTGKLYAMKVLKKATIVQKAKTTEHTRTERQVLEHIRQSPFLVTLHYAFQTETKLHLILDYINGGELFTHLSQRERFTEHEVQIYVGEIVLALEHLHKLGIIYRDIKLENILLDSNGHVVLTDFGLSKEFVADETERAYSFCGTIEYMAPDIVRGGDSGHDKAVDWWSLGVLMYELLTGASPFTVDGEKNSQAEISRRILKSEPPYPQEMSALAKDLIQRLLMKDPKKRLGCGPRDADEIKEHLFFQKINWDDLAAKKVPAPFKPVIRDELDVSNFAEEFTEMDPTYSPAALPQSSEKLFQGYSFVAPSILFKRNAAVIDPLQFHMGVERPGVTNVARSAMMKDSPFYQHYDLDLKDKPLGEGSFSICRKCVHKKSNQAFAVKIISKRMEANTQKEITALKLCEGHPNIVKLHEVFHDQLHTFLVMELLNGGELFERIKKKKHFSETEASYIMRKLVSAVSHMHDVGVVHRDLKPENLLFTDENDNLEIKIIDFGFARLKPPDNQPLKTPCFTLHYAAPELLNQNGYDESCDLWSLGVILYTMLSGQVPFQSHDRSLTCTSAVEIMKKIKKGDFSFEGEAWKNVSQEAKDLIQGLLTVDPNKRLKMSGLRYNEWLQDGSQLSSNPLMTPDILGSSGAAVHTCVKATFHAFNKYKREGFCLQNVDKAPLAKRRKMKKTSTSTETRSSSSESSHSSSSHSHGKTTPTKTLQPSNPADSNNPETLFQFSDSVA

Compound: CN1C(=O)[C@@H](N2CCc3c(nn(Cc4ccccc4)c3C(N)=O)C2=O)COc2cc(Cl)ccc21 [Compound 10, (S)-2-benzyl-6-(8-chloro-5-methyl-4-oxo-2,3,4,5-tetrahydrobenzo[b][1,4]oxazepin-3-yl)-7-oxo-4,5,6,7-tetrahydro-2H-pyrazolo[3,4-c]pyridine-3-carboxamide]
- remaining activity at 0.1 µM [1]: 83%
- remaining activity at 0.1 µM [2]: 83%
- remaining activity at 0.1 µM [3]: 76%
- remaining activity at 0.1 µM [4]: 79%
- remaining activity at 0.1 µM [5]: 88%
- remaining activity at 0.1 µM [6]: 76%
- remaining activity at 0.1 µM [7]: 88%
- remaining activity at 1 µM [8]: 100%
- remaining activity at 0.1 µM [9]: 93%
- remaining activity at 0.1 µM [10]: 88%
- remaining activity at 0.1 µM [11]: 71%
- remaining activity at 0.1 µM [12]: 82%
- remaining activity at 0.1 µM [13]: 100%
- remaining activity at 0.1 µM [14]: 74%
- remaining activity at 0.1 µM [15]: 62%
- remaining activity at 1 µM [16]: 100%
- remaining activity at 0.1 µM [17]: 61%
- remaining activity at 0.1 µM [18]: 89%
- remaining activity at 1 µM [19]: 100%
- remaining activity at 0.1 µM [20]: 76%
- remaining activity at 0.1 µM [21]: 100%
- remaining activity at 0.1 µM [22]: 76%
- remaining activity at 0.1 µM [23]: 89%
- remaining activity at 0.1 µM [24]: 83%
- remaining activity at 0.1 µM [25]: 89%
- remaining activity at 1 µM [26]: 100%
- remaining activity at 1 µM [27]: 100%
- remaining activity at 1 µM ([28]; RPS6KA5(Kin.Dom.1-N-terminal) (Entrez RPS6KA5)): 100%
- remaining activity at 1 µM ([28]; RPS6KA5(Kin.Dom.2-C-terminal) (Entrez RPS6KA5)): 100%
